In patent US4558007A, “Process for detecting LDHk isozyme activity in human serum for use as a diagnostic aid and for monitoring response to cancer therapy” (Health Research, Inc. (Roswell Park Divison), priority 1983, dated 1985):
pKi: −log10 of the molar value.

Tests used:
LDHk [1] = assay: Inhibition of LDHk by dinucleoside tetraphosphates; type: biochemical; conditions: for Mode of inhibition of LDHk versus NAD+: competition with NAD+; for pKi: property shared by LDHk from cells transformed by Ki-MSV, human tumors, human liver, rat retina
LDHk [2] = conditions: background description of the isozyme; cited from earlier work
human serum LDHk = assay: Inhibition of serum LDHk (gel lanes stained in presence of inhibitor); type: biochemical; conditions: 3×10^-5 M in staining mixture, 4 1/2 hours
Description: A reverse polarity gel system was used to isolate the LDHk isozyme which has a positive charge at pH 8.9 and migrates towards the cathode. The gel system was based on an imidazole/borate buffer system. The samples were analyzed on 3 mm thick, 20 well, 5.5% polyacrylamide slab gels photopolymerized with a riboflavin catalyst in the absence of persulfate. The gels were cast with a 0.15M potassium tetraborate buffer at pH 8.3. The lower reservoir buffer was 0.10M potassium tetraborate, pH 8.3, and the upper reservoir buffer contained 0.08M imidazole and 0.02M boric acid, pH 8.9. Gels were run an average of 16 hours at a voltage of 220 V, with cooling provided by circulating ice water.
Staining was done using the nitroblue tetrazolium/phenazine methosulfate composition of Dietz and Lubrano as described previously using 1M Tris buffer, pH 8.0. The staining mixture was supplemented with 2% glycerol to complex with the borate ions. These gels were stained in the dar at a temperature of about 37° C. for 41/2 hours in an Ehrlenmeyer suction flask under a nitrogen atmosphere. After staining, the gels were fixed, scanned to measure the amount of stain, and stored as described above.
An inhibition experiment was conducted on the serum LDHk. […]

[3] = tested on: LDHk detected in human tumor tissues; conditions: Anderson et al. 1981 study of human carcinomas; cited from earlier work

## Nc1nc2c(ncn2[C@@H]2O[C@H](COP(=O)(O)OP(=O)(O)OP(=O)(O)OP(=O)(O)OC[C@H]3O[C@@H](n4cnc5c(=O)[nH]c(N)nc54)[C@H](O)[C@@H]3O)[C@@H](O)[C@H]2O)c(=O)[nH]1 [diguanosine tetraphosphate, 5',5' diguanosine tetraphosphate]
LDHk [1]
  Mode of inhibition of LDHk versus NAD+: not competitive
  pKi: ~4.30
LDHk [2]
  Inhibition of LDHk: more strongly

## Nc1ncnc2c1ncn2[C@@H]1O[C@H](COP(=O)(O)OP(=O)(O)OP(=O)(O)OP(=O)(O)OC[C@H]2O[C@@H](n3cnc4c(N)ncnc43)[C@H](O)[C@@H]2O)[C@@H](O)[C@H]1O [diadenosine tetraphosphate, 5',5' diadenosine tetraphosphate]
LDHk [1]
  Mode of inhibition of LDHk versus NAD+: not competitive
  pKi: ~4.30
Human serum LDHk
  Inhibition of human serum LDHk activity: not inhibited
LDHk [2]
  Inhibition of LDHk: more strongly

## Nc1nc2c(ncn2[C@@H]2O[C@H](COP(=O)(O)OP(=O)(O)OP(=O)(O)O)[C@@H](O)[C@H]2O)c(=O)[nH]1 [GTP, guanosine triphosphate]
LDHk [2]
  Inhibition of LDHk: inhibited
[3]
  Inhibition of LDHk of human tumor tissues: inhibited
